Test results reported in US9421237B2, “Tripeptide boronic acid or boronic ester, preparative method and use thereof” (PEKING UNIVERSITY, priority 2009, dated 2016).

Legend:
[1] = target: T1, 20S proteasome extracted from rat liver, chymotryptic-like (CT-L) activity (Rattus norvegicus, UniProt P18421+P28075); assay: Proteasome inhibition, chymotryptic-like (CT-L) activity, fluorescent peptide Suc-leu-leu-Val-Tyr-AMC; format: biochemical; settings: rat liver 20S proteasome, 37° C., 1 h
T1 construct: 20S proteasome extracted from rat liver; from tissue; host or cells: rat liver
Experimental: (§1) The activities of the proteasome were assayed using fluorescent peptides: Suc-leu-leu-Val-Tyr-AMC (Suc represents succinyl, and AMC represents 7-amino-4-methylcoumarin, purchased from SIGMA) for determining chymotryptic-like (CT-L) activity; Z-Ala-Arg-Arg-AMC (Z represents benzyloxycarbonyl, purchased from Calbiochem) for determining trypsin-like (TL) activity; and Z-leu-leu-Glu-βNA (βNA represents β-naphtylamide, purchased from SIGMA) for determining peptidyl-glutamyl-peptide-hydrolyzing (PGPH) enzyme activity.
(§2) Method for the aforesaid activity assays is as follows: 1 μg of 20S proteasome extracted from rat liver was incubated with a 100 μL solution containing various concentrations of compounds, 50 μM fluorescent peptides and 20 mM Tris-HCl at 37° C. for 1 h, respectively. The fluorescence released from AMC and RNA reagents was measured by a spectrofluorimeter Fluostar OPTIMA and BMG Germany at excitation/emission wavelengths of 380/440 nm and 335/410 nm, respectively. 0.1% DMSO was used as a solvent control. Compared with the fluorescence of solvent control, an inhibition rate was calculated.

[2] = target: T2, 20S proteasome extracted from rat liver, peptidyl-glutamyl-peptide-hydrolyzing (PGPH) enzyme activity (Rattus norvegicus, UniProt P28073+Q9JHW0); assay: Proteasome inhibition, PGPH activity, fluorescent peptide Z-leu-leu-Glu-βNA; format: biochemical; settings: rat liver 20S proteasome, 37° C., 1 h
T2 construct: 20S proteasome extracted from rat liver; from tissue; host or cells: rat liver
Experimental: as §1
as §2, with “calculated. Said assays used anticancer drug bortezomib (leukemia drug), namely PS341 as compound for positive control.” for “calculated.”

[3] = target: T3, 20S proteasome extracted from rat liver, trypsin-like (TL) activity (Rattus norvegicus, UniProt P40112+Q9JHW0); assay: Proteasome inhibition, trypsin-like (TL) activity, fluorescent peptide Z-Ala-Arg-Arg-AMC; format: biochemical; settings: rat liver 20S proteasome, 37° C., 1 h; read-out: T-L (IC50)
T3 construct: 20S proteasome extracted from rat liver; from tissue; host or cells: rat liver
Experimental: as §1
as §2, with “calculated. Said assays used anticancer drug bortezomib (leukemia drug), namely PS341 as compound for positive control.” for “calculated.”

[4] = system: HL-60 human leukemia cell; assay: Preliminary anti-tumor screening in vitro, MTT method; format: cell-based; parameters: key to Test results: +++: inhibition rates at three doses are greater than 50%; ++: inhibition rates at two doses are greater than 50%; +: inhibition rate at one dose is greater than 50%; settings: HL-60, MTT; for Test results: number of doses with inhibition > 50%; for inhibition at 0.05 µM / inhibition at 0.5 µM / inhibition at 5 µM: Homo sapiens, read-out: Inhibition rate %
Experimental: (§3) The test methods used in this test example is the routine method for anti-tumor activities test in pharmaceutical area, for example, referring to the following reference: (J. Immunol Method, 1983, 65, 55).
(§4) Test models: A: MTT method (HL-60 human leukemia); B: SRB method (BGC-823 human gastric cancer); C: SRB method (Bel-7402 human hepatocarcinoma); D: SRB method (KB human nasopharyngeal carcinoma).
(§5) The aforesaid tests were carried out with the compounds of Examples 1-26 in the present invention, test results are shown in Tables 2-5.

[5] = system: Bel-7402 human hepatocarcinoma cell; assay: Preliminary anti-tumor screening in vitro, SRB method; format: cell-based; parameters: key to Test results: +++: inhibition rates at three doses are greater than 50%; ++: inhibition rates at two doses are greater than 50%; +: inhibition rate at one dose is greater than 50%; settings: Bel-7402, SRB; for Test results: number of doses with inhibition > 50%; for inhibition at 0.05 µM / inhibition at 0.5 µM / inhibition at 5 µM: Homo sapiens, read-out: Inhibition rate %
Experimental: as §3, §4, §5

[6] = system: BGC-823 human gastric cancer cell; assay: as above; format: cell-based; parameters: key to Test results: +++: inhibition rates at three doses are greater than 50%; ++: inhibition rates at two doses are greater than 50%; +: inhibition rate at one dose is greater than 50%; settings: BGC-823, SRB; for Test results: number of doses with inhibition > 50%; for inhibition at 0.05 µM / inhibition at 0.5 µM / inhibition at 5 µM: Homo sapiens, read-out: Inhibition rate %
Experimental: as §3, §4, §5

[7] = system: KB human nasopharyngeal carcinoma cell; assay: as above; format: cell-based; parameters: key to Test results: +++: inhibition rates at three doses are greater than 50%; ++: inhibition rates at two doses are greater than 50%; +: inhibition rate at one dose is greater than 50%; settings: for inhibition at 0.05 µM / inhibition at 0.5 µM / inhibition at 5 µM: Homo sapiens, read-out: Inhibition rate %; for Test results: number of doses with inhibition > 50%
Experimental: as §3, §4, §5

[8] = system: BGC-823 (human gastric carcinoma cell strain); assay: In vitro anti-tumor activity (IC50), standard MTT method; format: cell-based; settings: 72 h, average of three determinations
Experimental: (§6) HL-60, BXPC-3 and U266 were obtained from the American Type Culture Collection (Manassas, Va.), and BGC-823 (human gastric carcinoma cell strain) was obtained from China Pharmaceutical University.
(§7) Test methods: HL-60 cells were cultured in IMDM medium containing 20% fetal bovine serum at 37° C. in 5% CO2; BGC-823 cells and BXPC-3 cells were cultured in RPMI1640 medium containing 10% fetal bovine serum at 37° C. in 5% CO2; U266 cells were cultured in RPMI1640 medium containing 15% fetal bovine serum at 37° C. in 5% CO2.
(§8) The cell growth was measured by the standard MTT method. A dispersions (150 μL, containing 3000 cells) medium was added into each well of a 96-well plate and allowed to grow, after 24 h, ten kinds of medium (50 μL) containing different concentrations of drugs were added into the corresponding wells, and continued to incubate for 72 h. Then a solution containing 5 mg/ml MTT (20 μL) was added into each well and incubated for another 4 h at 37° C. The plate was then centrifugated at 1000 rpm at 4° C. for 5 min, and the medium in upper layer was carefully discarded. The precipitates were dissolved in 100 μL of DMSO, and absorbance was read with an Infinite M200 (Tecan, Austria) microplate reader at 540 nm.
(§9) The result was expressed as IC50 value, which is the average value of three independent determinations.

[9] = system: HL-60 (promyelocytic leukemia cell strain); assay: as above; format: cell-based; settings: Homo sapiens, 72 h, average of three determinations
Experimental: as §6, §7, §8, §9

[10] = system: U266 (multiple myeloma cell strain); assay: as above; format: cell-based; settings: Homo sapiens, U-266, 72 h, average of three determinations
Experimental: as §6, §7, §8, §9

[11] = system: BXPC-3 (human pancreatic cancer cell strain); assay: as above; format: cell-based; settings: 72 h, average of three determinations
Experimental: as §6, §7, §8, §9

IC50 [1]	IC50 [2]	IC50 [3]	melting point	SMILES	Test results [4]	inhibition at 0.05 µM [4]	inhibition at 0.5 µM [4]	inhibition at 5 µM [4]	Test results [5]	inhibition at 0.05 µM [5]	inhibition at 0.5 µM [5]	inhibition at 5 µM [5]	Test results [6]	inhibition at 0.05 µM [6]	inhibition at 0.5 µM [6]	inhibition at 5 µM [6]	inhibition at 0.05 µM [7]	inhibition at 0.5 µM [7]	inhibition at 5 µM [7]	Test results [7]	further results
0.37 ± 0.141 nM	3.91 ± 1.72 nM	> 20 nM	140 to 142 °C	CC(C)C[C@H](NC(=O)[C@H](Cc1ccc2ccccc2c1)NC(=O)[C@H](CC(C)C)NC(=O)c1cnccn1)B1OC2CC3C[C@@H](C3(C)C)[C@]2(C)O1 (stereo partly drawn) [Compound 5f, Pinanediol N-pyrazineformyl-L-leucyl-L-naphthylalanyl-L-leucineborate]	++	-19.9%	81.9%	88.6%	++	3.18%	83.9%	92.3%	++	38.3%	89.2%	83%	3.74%	93.4%	95.3%	++	–
0.22 ± 0.07 nM	8.33 ± 2.49 nM	> 20 nM	–	CC(C)C[C@H](NC(=O)[C@H](CC(C)C)NC(=O)[C@H](Cc1ccc2ccccc2c1)NC(=O)c1cnccn1)B(O)O [Compound 6m, N-pyrazineformyl-L-naphthylalanyl-L-leucyl-L-leucine Boronic Acid]	++	4.61%	85.2%	87.8%	++	30.3%	57.7%	95.2%	+++	60.3%	81.9%	97%	40.8%	86.4%	94.7%	++	IC50 [8]: 1720 nM; IC50 [9]: 15 nM; IC50 [10]: 120 nM; IC50 [11]: 43.5 nM
0.22 ± 0.106 nM	> 20 nM	> 20 nM	98 to 100 °C	CC(C)C[C@H](NC(=O)[C@H](Cc1ccccc1)NC(=O)[C@H](Cc1ccc2ccccc2c1)NC(=O)c1cnccn1)B1OC2CC3C[C@@H](C3(C)C)[C@]2(C)O1 (stereo partly drawn) [Compound 5b, Pinanediol N-pyrazineformyl-L-naphthylalanyl-L-phenylalanyl-L-leucine Borate]	++	21.1%	88.1%	88.1%	++	35.9%	66.7%	91%	+++	68.6%	94.8%	96.5%	40.4%	95.1%	95.8%	++	–
0.335 ± 0.031 nM	5.39 ± 0.368 nM	> 20 nM	119 to 120 °C	CC(C)C[C@H](NC(=O)[C@H](Cc1ccc(O)cc1)NC(=O)[C@H](Cc1ccccc1)NC(=O)c1cnccn1)B1OC2CC3C[C@@H](C3(C)C)[C@]2(C)O1 (stereo partly drawn) [Compound 5c, Pinanediol N-pyrazineformyl-L-phenylalanyl-L-tyrosyl-L-leucine Borate]	+	-10.5%	1.94%	99%	+	4.18%	16.6%	91.1%	++	3.19%	56%	96.1%	1.84%	29.8%	91.4%	+	–
0.295 ± 0.049 nM	4.76 ± 1.31 nM	> 20 nM	90 to 92 °C	CC(C)C[C@H](NC(=O)[C@H](Cc1ccccc1)NC(=O)[C@H](Cc1ccc(O)cc1)NC(=O)c1cnccn1)B1OC2CC3C[C@@H](C3(C)C)[C@]2(C)O1 (stereo partly drawn) [Compound 5d, Pinanediol N-pyrazineformyl-L-tyrosyl-L-phenylalanyl-L-leucine Borate]	+	-11.8%	35.9%	88.9%	++	5.52%	52%	93.1%	++	23.6%	93.6%	97.8%	0.83%	73.2%	94.8%	++	–
0.546 ± 0.077 nM	10.9 ± 3.21 nM	> 20 nM	112 to 114 °C	CC(C)C[C@H](NC(=O)[C@H](Cc1ccccc1)NC(=O)[C@H](Cc1ccccc1)NC(=O)c1cnccn1)B(O)O [Compound 6a, N-pyrazineformyl-L-phenylalanyl-L-phenylalanyl-L-leucine Boronic Acid]	–	–	–	–	–	–	–	–	–	–	–	–	–	–	–	–	–
